Measurements published in patent US6593357B1, “Pyrazole compositions useful as inhibitors of ERK” (Vertex Pharmaceuticals Incorporated, priority 2000, dated 2003).

What follows are compounds tested against ERK2 (Homo sapiens, UniProt P28482) (assay: ERK2 inhibition, spectrophotometric coupled-enzyme assay). Settings: activated ERK2 10 nM, 65 μM ATP, 30° C., pH 7.5; read-out: ERK2 Inhibitory Activity (Ki class).
Type: biochemical

ERK2, sequence (P28482 whole entry): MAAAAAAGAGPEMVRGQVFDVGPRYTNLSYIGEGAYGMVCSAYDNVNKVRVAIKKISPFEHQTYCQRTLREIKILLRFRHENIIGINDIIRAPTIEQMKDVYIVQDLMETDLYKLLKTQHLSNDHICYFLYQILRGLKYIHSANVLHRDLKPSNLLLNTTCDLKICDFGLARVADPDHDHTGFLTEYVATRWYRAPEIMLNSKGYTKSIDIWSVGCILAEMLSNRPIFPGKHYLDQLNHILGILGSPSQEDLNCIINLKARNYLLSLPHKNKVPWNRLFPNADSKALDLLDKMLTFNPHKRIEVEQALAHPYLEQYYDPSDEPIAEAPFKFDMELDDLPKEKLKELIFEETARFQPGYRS

Structure (SMILES) | Ki [nM]
CCOC(=O)c1cc(-c2[nH]ncc2-c2ccccc2)c[nH]1 [II-2] | > 5000
NNC(=O)c1cc(-c2[nH]ncc2-c2cccc([N+](=O)[O-])c2)c[nH]1 [II-3] | < 1000
O=C(c1cc(-c2[nH]ncc2-c2ccccc2)c[nH]1)N1CCCC1 [II-4] | < 1000
O=C(NCc1ccccc1)c1cc(-c2n[nH]cc2-c2ccccc2)c[nH]1 [II-5, 4-(4-phenyl-1H-pyrazole-3-yl)-1H-pyrrole-2-carboxylic acid benzylamide] | < 1000
CCOC(=O)c1cc(-c2[nH]ncc2-c2cccc([N+](=O)[O-])c2)c[nH]1 [II-6] | < 1000
CCOC(=O)c1cc(-c2[nH]ncc2-c2ccc(Cl)cc2)c[nH]1 [II-7] | > 5000
CCOC(=O)c1cc(-c2[nH]ncc2-c2ccc(OC)cc2)c[nH]1 [II-8] | > 5000
CCOC(=O)c1cc(-c2[nH]ncc2-c2cccc(N)c2)c[nH]1 [II-9] | > 5000
CCOC(=O)c1cc(-c2[nH]ncc2-c2cccc(OC)c2)c[nH]1 [II-10] | > 5000
CCOC(=O)c1cc(-c2[nH]ncc2-c2ccc(F)cc2)c[nH]1 [II-11] | > 5000
CCOC(=O)c1cc(-c2[nH]ncc2-c2cccc(Cl)c2)c[nH]1 [II-13] | < 1000
O=C(NCc1cccnc1)c1cc(-c2[nH]ncc2-c2ccccc2)c[nH]1 [II-18] | < 1000
O=C(c1cc(-c2[nH]ncc2-c2ccccc2)c[nH]1)N1CCOCC1 [II-19] | < 1000
CC(C)NC(=O)c1cc(-c2[nH]ncc2-c2ccccc2)c[nH]1 [II-20] | < 1000
CN1CCN(C(=O)c2cc(-c3[nH]ncc3-c3ccccc3)c[nH]2)CC1 [II-21] | > 5000
O=C(NCc1ccco1)c1cc(-c2[nH]ncc2-c2ccccc2)c[nH]1 [II-22] | < 1000
COc1cccc(-c2cn[nH]c2-c2c[nH]c(C(=O)N(C)C)c2)c1 [II-23] | < 1000
COc1cccc(-c2cn[nH]c2-c2c[nH]c(C(=O)N3CCCC3)c2)c1 [II-24] | < 1000
COc1cccc(-c2cn[nH]c2-c2c[nH]c(C(=O)NCCN(C)C)c2)c1 [II-25] | > 5000
COc1cccc(-c2cn[nH]c2-c2c[nH]c(C(=O)NCc3cccnc3)c2)c1 [II-26] | < 1000
COc1cccc(-c2cn[nH]c2-c2c[nH]c(C(=O)N3CCOCC3)c2)c1 [II-27] | < 1000
COc1cccc(-c2cn[nH]c2-c2c[nH]c(C(=O)N3CCN(C)CC3)c2)c1 [II-29] | > 5000

Structure (SMILES) | Ki [nM]
COc1cccc(-c2cn[nH]c2-c2c[nH]c(C(=O)NCc3ccco3)c2)c1 [II-30] | < 1000
O=C(N[C@@H](CO)c1ccccc1)c1cc(-c2[nH]ncc2-c2cc(Cl)cc(Cl)c2)c[nH]1 [II-39] | < 1000
O=C(Nc1ccc(F)c(F)c1)c1cc(-c2[nH]ncc2-c2cccc(Br)c2)c[nH]1 [II-40] | < 1000
O=C(NC(CO)c1ccccc1)c1cc(-c2[nH]ncc2-c2cc(I)c(O)c([N+](=O)[O-])c2)c[nH]1 (centres unmarked) [II-42] | < 1000
Nc1cc(-c2cn[nH]c2-c2c[nH]c(C(=O)NC(CO)c3ccccc3)c2)cc(I)c1O (centres unmarked) [II-44] | < 1000
COc1cccc(CNC(=O)c2cc(-c3[nH]ncc3-c3cccc(Br)c3)c[nH]2)c1 [II-46] | < 1000
O=C(NCc1cccc(C(F)(F)F)c1)c1cc(-c2[nH]ncc2-c2cccc(Br)c2)c[nH]1 [II-47] | < 1000
O=C(NC(CO)c1ccccc1)c1cc(-c2[nH]ncc2-c2cccc(C(F)(F)F)c2)c[nH]1 (centres unmarked) [II-49] | < 1000
O=C(NCc1ccccc1)c1cc(-c2[nH]ncc2-c2cc(I)c(O)c([N+](=O)[O-])c2)c[nH]1 [II-52] | < 1000
CS(=O)(=O)c1ccc(CNC(=O)c2cc(-c3[nH]ncc3-c3cccc(Br)c3)c[nH]2)cc1 [II-55] | < 1000
O=C(NNc1cccc(C(F)(F)F)c1)c1cc(-c2[nH]ncc2-c2cccc(Br)c2)c[nH]1 [II-56] | < 1000
Cc1ccc(CNC(=O)c2cc(-c3[nH]ncc3-c3cccc(Br)c3)c[nH]2)o1 [II-58] | < 1000
O=C(NC(CCO)c1ccccc1)c1cc(-c2[nH]ncc2-c2cccc(Br)c2)c[nH]1 (centres unmarked) [II-59] | < 1000
Cc1ccccc1CNC(=O)c1cc(-c2[nH]ncc2-c2cccc(Br)c2)c[nH]1 [II-60] | < 1000
CCC(NC(=O)c1cc(-c2[nH]ncc2-c2cccc(Br)c2)c[nH]1)c1ccccc1 (centres unmarked) [II-62] | < 1000
O=C(NCc1ccccc1)c1cc(-c2[nH]ncc2-c2cccc(F)c2)c[nH]1 [II-63] | < 1000
O=C(NC[C@@H]1CCCC[C@@H]1O)c1cc(-c2[nH]ncc2-c2cccc(Br)c2)c[nH]1 [II-65] | < 1000
COc1cc(CNC(=O)c2cc(-c3[nH]ncc3-c3cccc(Br)c3)c[nH]2)cc(OC)c1 [II-68] | < 1000
COc1ccccc1CNC(=O)c1cc(-c2[nH]ncc2-c2cccc(Br)c2)c[nH]1 [II-69] | < 1000
Nc1cccc(-c2cn[nH]c2-c2c[nH]c(C(=O)NCc3ccccc3)c2)c1 [II-73] | < 1000
O=C(NCc1cccnc1)c1cc(-c2[nH]ncc2-c2ccc(Cl)c(Cl)c2)c[nH]1 [II-74] | < 1000
Cc1cccc(-c2cn[nH]c2-c2c[nH]c(C(=O)NC(CO)c3ccccc3)c2)c1 (centres unmarked) [II-75] | < 1000

Structure (SMILES) | Ki [nM]
O=C(NCC1CCCO1)c1cc(-c2[nH]ncc2-c2cc(Cl)cc(Cl)c2)c[nH]1 (centres unmarked) [II-78] | < 1000
O=C(NCc1ccccc1)c1cc(-c2[nH]ncc2-c2cccc([N+](=O)[O-])c2)c[nH]1 [II-79] | < 1000
CN(Cc1ccccc1)C(=O)c1cc(-c2[nH]ncc2-c2cccc(Br)c2)c[nH]1 [II-83] | < 1000
O=C(NC(CCO)c1ccccc1)c1cc(-c2[nH]ncc2-c2cccc(Br)c2)c[nH]1 (centres unmarked) [II-86] | < 1000
O=C(c1cc(-c2[nH]ncc2-c2cccc(Br)c2)c[nH]1)N1CCc2ccccc2C1 [II-87] | < 1000
Cc1cccc(-c2cn[nH]c2-c2c[nH]c(C(=O)NCc3ccccc3)c2)c1 [II-90] | < 1000
O=C(N[C@@H](CO)Cc1ccccc1)c1cc(-c2[nH]ncc2-c2cccc(Br)c2)c[nH]1 [II-91] | < 1000
O=C(NCc1ccccc1)c1cc(-c2[nH]ncc2-c2ccc(Cl)cc2)c[nH]1 [II-92] | < 1000
O=C(NCc1ccccc1)c1cc(-c2[nH]ncc2-c2cccc(O)c2)c[nH]1 [II-95] | < 1000
Cc1cccc(-c2cn[nH]c2-c2c[nH]c(C(=O)NCc3ccncc3)c2)c1 [II-96] | < 1000
O=C(NCC1CCCO1)c1cc(-c2[nH]ncc2-c2ccc(F)c(Cl)c2)c[nH]1 (centres unmarked) [II-100] | < 1000
O=C(c1cc(-c2[nH]ncc2-c2cccc(Br)c2)c[nH]1)N1CCC(O)(c2ccccc2)CC1 [II-102] | < 1000
COc1cc2c(cc1OC)C(CO)N(C(=O)c1cc(-c3[nH]ncc3-c3cccc(Br)c3)c[nH]1)CC2 (centres unmarked) [II-105] | < 1000
O=C(c1cc(-c2[nH]ncc2-c2ccc(F)c(Cl)c2)c[nH]1)N1CCOCC1 [II-107] | < 1000
Nc1ccc(CNC(=O)c2cc(-c3[nH]ncc3-c3cccc(Br)c3)c[nH]2)cc1 [II-109] | < 1000
O=C(NCc1ccc(-c2cnns2)cc1)c1cc(-c2[nH]ncc2-c2cccc(Br)c2)c[nH]1 [II-110] | < 1000
O=C(NCc1ccccc1)c1cc(-c2[nH]ncc2-c2ccc(F)cc2)c[nH]1 [II-111] | < 1000
O=C(NCc1cccnc1)c1cc(-c2[nH]ncc2-c2ccc(F)c(F)c2)c[nH]1 [II-116] | 1000 to 5000
COc1ccc(-c2cn[nH]c2-c2c[nH]c(C(=O)NCc3ccccc3)c2)cc1 [II-117] | 1000 to 5000
COc1cc(OC)c(CNC(=O)c2cc(-c3[nH]ncc3-c3cccc(Br)c3)c[nH]2)c(OC)c1 [II-118] | 1000 to 5000
O=C(NCc1cccnc1)c1cc(-c2[nH]ncc2-c2cccc(F)c2)c[nH]1 [II-119] | 1000 to 5000
O=C(NCC1CCCO1)c1cc(-c2[nH]ncc2-c2ccc(F)c(F)c2)c[nH]1 (centres unmarked) [II-120] | 1000 to 5000

Structure (SMILES) | Ki [nM]
CC(C)(C)OC(=O)N1CCCC(CNC(=O)c2cc(-c3[nH]ncc3-c3cccc(Cl)c3F)c[nH]2)C1 (centres unmarked) [II-121] | 1000 to 5000
COc1cccc(N2CCN(C(=O)c3cc(-c4[nH]ncc4-c4cccc(Br)c4)c[nH]3)CC2)c1 [II-122] | 1000 to 5000
O=C(c1cc(-c2[nH]ncc2-c2cccc(Br)c2)c[nH]1)N1CCC(O)(c2ccc(Br)cc2)CC1 [II-123] | 1000 to 5000
COc1ccc(OC)c(CNC(=O)c2cc(-c3[nH]ncc3-c3cccc(Br)c3)c[nH]2)c1 [II-124] | 1000 to 5000
CC(C)(C)OC(=O)N1CCCC(CNC(=O)c2cc(-c3[nH]ncc3-c3cc(Cl)cc(Cl)c3)c[nH]2)C1 (centres unmarked) [II-125] | 1000 to 5000
Cc1ccc(N2CCN(C(=O)c3cc(-c4[nH]ncc4-c4cccc(Br)c4)c[nH]3)CC2)cc1 [II-126] | 1000 to 5000
O=C(c1cc(-c2[nH]ncc2-c2ccc(Cl)c(Cl)c2)c[nH]1)N1CCOCC1 [II-127] | 1000 to 5000
O=C(c1cc(-c2[nH]ncc2-c2cccc(Br)c2)c[nH]1)N1CCN(c2ccc(F)cc2)CC1 [II-128] | 1000 to 5000
O=C(c1cc(-c2[nH]ncc2-c2cccc(Cl)c2F)c[nH]1)N1CCOCC1 [II-129] | 1000 to 5000
O=C(NCCO)c1cc(-c2[nH]ncc2-c2cccc(Br)c2)c[nH]1 [II-130] | 1000 to 5000
Nc1cccc(-c2cn[nH]c2-c2c[nH]c(C(=O)NCc3ccccc3)c2)c1 [II-131] | 1000 to 5000
COC(=O)c1cccc(-c2cn[nH]c2-c2c[nH]c(C(=O)NCc3ccccc3)c2)c1 [II-132] | 1000 to 5000
COc1ccc(-c2cn[nH]c2-c2c[nH]c(C(=O)NOCc3ccccc3)c2)cc1 [II-133] | 1000 to 5000
COc1cccc(-c2cn[nH]c2-c2c[nH]c(C(=O)N3CCOCC3)c2)c1 [II-135] | 1000 to 5000
CC1CCN(C(=O)c2cc(-c3[nH]ncc3-c3cccc(Cl)c3)c[nH]2)CC1 [II-136] | 1000 to 5000
NNC(=O)c1cc(-c2[nH]ncc2-c2cccc([N+](=O)[O-])c2)c[nH]1 [II-137] | 1000 to 5000
O=C(c1cc(-c2[nH]ncc2-c2cccc(Br)c2)c[nH]1)N1CCN(c2cnccn2)CC1 [II-138] | 1000 to 5000
O=C(c1cc(-c2[nH]ncc2-c2cccc(Br)c2)c[nH]1)N(CCCO)Cc1ccccc1 [II-139] | 1000 to 5000
O=C(NOCc1ccccc1)c1cc(-c2[nH]ncc2-c2ccc(F)cc2)c[nH]1 [II-146] | 1000 to 5000
CCOC(=O)c1cc(-c2[nH]ncc2-c2cccc([N+](=O)[O-])c2)c[nH]1 [II-148] | 1000 to 5000
